# Laboratory results published in patent publication US10793563B2, “GCN2 inhibitors and uses thereof” (Merck Patent GmbH, priority 2018, dated 2020).
# Where two headings read alike, the source gives them in different places.
# Tests used:
# GCN2 kinase = GCN2 kinase (Homo sapiens (Human), UniProt Q9P2K8); assay: GCN2 Enzyme Inhibition Assay (Transcreener ADP2 fluorescence polarization); type: biochemical; details: 280 μM ATP, 200 μM (RS)7 peptide, 4 nM GCN2, 25° C.; for Ki: Ki(app)
# Method in brief: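 Transcreener ADP2 fluorescence polarization detection of ADP from 4 nM GCN2 with (RS)7 substrate in 25 mM Tris-HCl pH 7.5, 50 mM NaCl, 10 mM MgCl2, 1 mM DTT. Compound pre-incubated with enzyme 10 min at 25 °C; reaction started by ATP, run 1 h at 25 °C. IC50 and Ki(app) by tight-binding fit.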
# [1] = target: intracellular GCN2 (phosphorylation of the GCN2 substrate eIF2α) (Homo sapiens (Human), UniProt Q9P2K8); assay: GCN2 Cellular Inhibition Assay (AlphaScreen SureFire P-eIF2α Ser51, borrelidin-treated U2OS cells); type: cell-based; details: 10 μM borrelidin, 1 h
# Method in brief: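 U2OS cells adhered overnight, then given compound (top 40 μM, 4-fold serial dilutions) plus 10 μM borrelidin for 1 h at 37 °C. Lysates assayed for eIF2α phospho-Ser51 by AlphaScreen SureFire; % inhibition versus borrelidin-only wells.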
# [2] = phosphorylated eIF2α Ser51, read-out: GCN2 Biomarker (IC50)
# Sequence of GCN2 kinase (Q9P2K8 whole entry): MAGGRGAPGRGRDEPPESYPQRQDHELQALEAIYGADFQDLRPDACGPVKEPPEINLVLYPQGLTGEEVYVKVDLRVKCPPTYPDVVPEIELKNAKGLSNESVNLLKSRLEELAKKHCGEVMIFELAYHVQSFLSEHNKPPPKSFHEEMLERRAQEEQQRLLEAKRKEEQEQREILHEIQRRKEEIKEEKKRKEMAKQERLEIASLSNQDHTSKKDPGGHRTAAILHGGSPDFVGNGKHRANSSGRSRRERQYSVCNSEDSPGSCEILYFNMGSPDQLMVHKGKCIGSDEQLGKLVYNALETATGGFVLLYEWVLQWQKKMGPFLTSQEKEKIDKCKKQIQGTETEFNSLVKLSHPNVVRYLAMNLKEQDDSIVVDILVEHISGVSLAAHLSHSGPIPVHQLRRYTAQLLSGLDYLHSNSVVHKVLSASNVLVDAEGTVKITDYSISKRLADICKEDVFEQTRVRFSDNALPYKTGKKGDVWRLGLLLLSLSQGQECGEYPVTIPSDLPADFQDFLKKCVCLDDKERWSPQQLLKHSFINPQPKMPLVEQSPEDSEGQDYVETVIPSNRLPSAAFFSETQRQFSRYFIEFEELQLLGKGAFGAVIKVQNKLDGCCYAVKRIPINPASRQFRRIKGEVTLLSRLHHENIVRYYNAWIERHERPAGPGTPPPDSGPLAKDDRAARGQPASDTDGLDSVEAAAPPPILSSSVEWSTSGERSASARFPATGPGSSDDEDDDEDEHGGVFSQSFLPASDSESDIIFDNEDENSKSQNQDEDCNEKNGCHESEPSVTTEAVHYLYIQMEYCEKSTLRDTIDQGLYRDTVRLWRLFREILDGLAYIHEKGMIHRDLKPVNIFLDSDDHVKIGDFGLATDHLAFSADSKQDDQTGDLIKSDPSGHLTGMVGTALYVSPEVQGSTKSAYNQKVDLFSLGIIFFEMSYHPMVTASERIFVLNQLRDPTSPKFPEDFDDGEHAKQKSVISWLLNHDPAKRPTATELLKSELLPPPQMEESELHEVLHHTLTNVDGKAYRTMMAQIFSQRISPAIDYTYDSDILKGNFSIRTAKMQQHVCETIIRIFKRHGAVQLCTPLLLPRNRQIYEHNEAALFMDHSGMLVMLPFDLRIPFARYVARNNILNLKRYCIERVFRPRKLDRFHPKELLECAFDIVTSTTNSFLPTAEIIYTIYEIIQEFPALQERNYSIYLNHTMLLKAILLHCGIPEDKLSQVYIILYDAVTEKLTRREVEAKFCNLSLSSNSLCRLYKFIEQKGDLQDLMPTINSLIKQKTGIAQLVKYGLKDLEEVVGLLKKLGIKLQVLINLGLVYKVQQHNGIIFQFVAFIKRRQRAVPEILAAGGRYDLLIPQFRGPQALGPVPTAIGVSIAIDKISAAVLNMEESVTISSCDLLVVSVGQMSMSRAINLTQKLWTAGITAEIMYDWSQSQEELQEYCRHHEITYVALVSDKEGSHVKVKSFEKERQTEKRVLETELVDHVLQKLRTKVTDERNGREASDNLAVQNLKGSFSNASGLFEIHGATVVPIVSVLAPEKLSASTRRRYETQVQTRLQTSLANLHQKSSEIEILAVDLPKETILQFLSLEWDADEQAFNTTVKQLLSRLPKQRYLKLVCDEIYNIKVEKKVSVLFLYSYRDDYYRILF
# Sequence of intracellular GCN2 (phosphorylation of the GCN2 substrate eIF2α) (Q9P2K8 whole entry): as above
structure (smiles),measurement,setting,value
"Cn1cc(NC(=O)[C@H]2CCCN(c3ccnc(-c4cnc5cc(F)c(Cl)cn45)n3)C2)cn1 [I-59, (S)-1-[2-(6-Chloro-7-fluoro-imidazo[1,2-a]pyridine-3-yl)-pyrimidin-4-yl]-piperidine-3-carboxylic acid (1-methyl-1H-pyrazol-4-yl)-amide]",Ki,GCN2 kinase,100 to 1000 nM
same,IC50,[1]; [2],> 5000 nM
"C[C@@H]1CN(c2ccnc(-c3cnc4ccc(C(F)(F)F)cn34)n2)C[C@H](C)N1C(=O)c1ccn(C2CC2)n1 [I-440, (1-cyclopropyl-1H-pyrazol-3-yl)(cis-2,6-dimethyl-4-(2-(6-(trifluoromethyl)imidazo[1,2-a]pyridin-3-yl)pyrimidin-4-yl)piperazin-1-yl)methanone]",IC50,GCN2 kinase,100 to 1000 nM
same,IC50,[1]; [2],> 5000 nM
"N#C[C@@H]1CN(c2ccnc(-c3cnc4ccc(C(F)(F)F)cn34)n2)CCO1 [I-232, (S)-4-(2-(6-(trifluoromethyl)imidazo[1,2-a]pyridin-3-yl)pyrimidin-4-yl)morpholine-2-carbonitrile]",IC50,GCN2 kinase,100 to 1000 nM
same,IC50,[1]; [2],500 to 5000 nM
"CC(=O)N1C(C)CN(c2ccnc(-c3cnc4ccc(Cl)cn34)n2)CC1c1cn[nH]c1 (centres unmarked) [I-277, 1-(4-(2-(6-chloroimidazo[1,2-a]pyridin-3-yl)pyrimidin-4-yl)-2-methyl-6-(1H-pyrazol-4-yl)piperazin-1-yl)ethan-1-one]",IC50,GCN2 kinase,10 to 100 nM
same,IC50,[1]; [2],500 to 5000 nM
"C[C@@H]1C[C@H](N=S(C)(C)=O)CN(c2nccc(-c3cnc4ccc(C(F)(F)F)cn34)n2)C1 [I-169, dimethyl(((3 S,5R)-5-methyl-1-(4-(6-(trifluoromethyl)imidazo[1,2-a]pyridin-3-yl)pyrimidin-2-yl)piperidin-3-yl)imino)-λ6-sulfanone]",IC50,GCN2 kinase,10 to 100 nM
same,IC50,[1]; [2],500 to 5000 nM
"CS(=O)(=O)c1ccc2ncc(-c3nccc(N4CCCC(c5cn[nH]c5)C4)n3)n2c1 (centres unmarked) [I-313, 3-(4-(3-(1H-pyrazol-4-yl)piperidin-1-yl)pyrimidin-2-yl)-6-(methylsulfonyl)imidazo[1,2-a]pyridine]",IC50,GCN2 kinase,10 to 100 nM
same,IC50,[1]; [2],500 to 5000 nM
"C[C@@H]1[C@H]([C@@H](C)NS(C)(=O)=O)N(C2CC2)CCN1c1ccnc(-c2cnc3ccc(C(F)(F)F)cn23)n1 [I-505, N—((R)-1-((2R,3R)-1-cyclopropyl-3-methyl-4-(2-(6-(trifluoromethyl)imidazo[1,2-a]pyridin-3-yl)pyrimidin-4-yl)piperazin-2-yl)ethyl)methanesulfonamide]",IC50,GCN2 kinase,100 to 1000 nM
same,IC50,[1]; [2],> 5000 nM
"Cc1oncc1[C@H]1CN(c2ccnc(-c3cnc4ccc(C(F)(F)F)cn34)n2)C[C@@H](C)O1 [I-347, (2R,6S)-2-methyl-6-(5-methylisoxazol-4-yl)-4-(2-(6-(trifluoromethyl)imidazo[1,2-a]pyridin-3-yl)pyrimidin-4-yl)morpholine]",IC50,GCN2 kinase,100 to 1000 nM
same,IC50,[1]; [2],500 to 5000 nM
"CS(=O)(=O)NC[C@@H]1CN(c2cncc(-c3cnc4ccc(Cl)cn34)n2)CCO1 [I-113, (S)—N-((4-(6-(6-chloroimidazo[1,2-a]pyridin-3-yl)pyrazin-2-yl)morpholin-2-yl)methyl)methanesulfonamide]",Ki,GCN2 kinase,< 10 nM
same,IC50,[1]; [2],500 to 5000 nM
"O=C(c1cocn1)N1CCN(c2ccnc(-c3cnc4ccc(C(F)(F)F)cn34)n2)CC1c1cn[nH]c1 (centres unmarked) [I-443, (2-(1H-pyrazol-4-yl)-4-(2-(6-(trifluoromethyl)imidazo[1,2-a]pyridin-3-yl)pyrimidin-4-yl)piperazin-1-yl)(oxazol-4-yl)methanone]",IC50,GCN2 kinase,10 to 100 nM
same,IC50,[1]; [2],500 to 5000 nM
"Cc1noc([C@H]2CN(c3ccnc(-c4cnc5cc(F)c(Cl)cn45)n3)C[C@@H](C)O2)n1 (relative stereo) [I-56, 6-Chloro-7-fluoro-3-{4-[cis-2-methyl-6-(3-methyl-[1,2,4]oxadiazol-5-yl)-morpholin-4-yl]-pyrimidin-2-yl}-imidazo[1,2-a]pyridine]",Ki,GCN2 kinase,10 to 100 nM
same,IC50,"[1]; GCN2 Biomarker (IC50), phosphorylated eIF2α Ser51",500 to 5000 nM
"C[C@@H](NS(C)(=O)=O)[C@H]1CN(c2ccnc(-c3cnc4ccc(C(F)(F)F)cn34)n2)CCO1 [I-406, N—((R)-1-((R)-4-(2-(6-(trifluoromethyl)imidazo[1,2-a]pyridin-3-yl)pyrimidin-4-yl)morpholin-2-yl)ethyl)methanesulfonamide]",IC50,GCN2 kinase,10 to 100 nM
same,IC50,[1]; [2],500 to 5000 nM
"CS(=O)(=O)NC[C@@H]1CN(c2ccnc(-c3cnc4ccc(C(F)(F)F)cn34)n2)CCO1 [I-1, N-[[(2S)-4-[2-[6-(Trifluoromethyl)imidazo[1,2-a]pyridin-3-yl]pyrimidin-4-yl]morpholin-2-yl]methyl]methanesulfonamide]",Ki,GCN2 kinase,10 to 100 nM
same,IC50,[1]; [2],500 to 5000 nM
"O=C1NCC2CN(c3ccnc(-c4cnc5ccc(C(F)(F)F)cn45)n3)CCN12 (centres unmarked) [I-5, 7-(2-(6-(Trifluoromethyl)imidazo[1,2-a]pyridin-3-yl)pyrimidin-4-yl)hexahydroimidazo[1,5-a]pyrazin-3(2H)-one]",Ki,GCN2 kinase,10 to 100 nM
same,IC50,[1]; [2],500 to 5000 nM
"C[C@H]1[C@@H](CNS(C)(=O)=O)N(C2CC2)[C@@H](C)CN1c1ccnc(-c2cnc3ccc(C(F)(F)F)cn23)n1 (stereo in doubt) [I-491, N-(((2R,3 S,6S)-1-cyclopropyl-3,6-dimethyl-4-(2-(6-(trifluoromethyl)imidazo[1,2-a]pyridin-3-yl)pyrimidin-4-yl)piperazin-2-yl)methyl)methanesulfonamide]",IC50,GCN2 kinase,10 to 100 nM
same,IC50,[1]; [2],< 500 nM
"C[C@H](NS(C)(=O)=O)[C@@H]1[C@H](C)N(c2ccnc(-c3cnc4ccc(C(F)(F)F)cn34)n2)CCN1C1CC1 [I-500, N—((S)-1-((2S,3 S)-1-cyclopropyl-3-methyl-4-(2-(6-(trifluoromethyl)imidazo[1,2-a]pyridin-3-yl)pyrimidin-4-yl)piperazin-2-yl)ethyl)methanesulfonamide]",IC50,GCN2 kinase,100 to 1000 nM
same,IC50,[1]; [2],500 to 5000 nM
"Cc1n[nH]cc1C1CC(O)CN(c2ccnc(-c3cnc4ccc(Cl)cn34)n2)C1 (centres unmarked) [I-302, 1-(2-(6-chloroimidazo[1,2-a]pyridin-3-yl)pyrimidin-4-yl)-5-(3-methyl-1H-pyrazol-4-yl)piperidin-3-ol]",IC50,GCN2 kinase,< 10 nM
same,IC50,[1]; [2],< 500 nM
Cc1[nH]ncc1[C@@H]1[C@@H](C)N(c2ccnc(-c3cnc4ccc(C(F)(F)F)cn34)n2)CCN1C1COC1 [I-368],IC50,GCN2 kinase,100 to 1000 nM
same,IC50,[1]; [2],500 to 5000 nM
"C[C@H]1CN(c2nccc(-c3cnc4ccc(Cl)cn34)n2)C[C@H](c2cn[nH]c2)O1 [I-246, (2S,6S)-4-(4-(6-chloroimidazo[1,2-a]pyridin-3-yl)pyrimidin-2-yl)-2-methyl-6-(1H-pyrazol-4-yl)morpholine]",IC50,GCN2 kinase,10 to 100 nM
same,IC50,[1]; [2],500 to 5000 nM
"Clc1ccc2ncc(-c3nccc(N4CCNC(c5cn[nH]c5)C4)n3)n2c1 (centres unmarked) [I-28, 6-Chloro-3-[4-[3-(1H-pyrazol-4-yl)piperazin-1-yl]pyrimidin-2-yl]imidazo[1,2-a]pyridine]",Ki,GCN2 kinase,< 10 nM
same,IC50,[1]; [2],500 to 5000 nM
"Cc1cc(-c2cnc3ccc(Cl)cn23)nc(N2C[C@@H](c3c[nH]nc3C)O[C@@H](C)C2)n1 [I-221, (2S,6R)-4-(4-(6-chloroimidazo[1,2-a]pyridin-3-yl)-6-methylpyrimidin-2-yl)-2-methyl-6-(5-methyl-1H-pyrazol-4-yl)morpholine]",IC50,GCN2 kinase,< 10 nM
same,IC50,[1]; [2],< 500 nM
"COCCn1cc([C@H]2C[C@H](C)CN(c3nccc(-c4cnc5ccc(C(F)(F)F)cn45)n3)C2)cn1 [I-144, 3-(2-((3R,5S)-3-(1-(2-methoxyethyl)-1H-pyrazol-4-yl)-5-methylpiperidin-1-yl)pyrimidin-4-yl)-6-(trifluoromethyl)imidazo[1,2-a]pyridine]",IC50,GCN2 kinase,100 to 1000 nM
same,IC50,[1]; [2],< 500 nM
